Tests used:
Assay in all cases: In vitro MMP inhibition analysis (fluorogenic peptide substrate cleavage), Ki
Type in all cases: biochemical
Conditions in all cases: Table 2
Human recombinant MMP-1 = molecular target: T1, Human recombinant MMP-1 (Homo sapiens, UniProt P03956)
T1 construct: made in house; host or cells: MMP-1-transfected HT-1080 cells (spent media)
T1 sequence (P03956 100-469): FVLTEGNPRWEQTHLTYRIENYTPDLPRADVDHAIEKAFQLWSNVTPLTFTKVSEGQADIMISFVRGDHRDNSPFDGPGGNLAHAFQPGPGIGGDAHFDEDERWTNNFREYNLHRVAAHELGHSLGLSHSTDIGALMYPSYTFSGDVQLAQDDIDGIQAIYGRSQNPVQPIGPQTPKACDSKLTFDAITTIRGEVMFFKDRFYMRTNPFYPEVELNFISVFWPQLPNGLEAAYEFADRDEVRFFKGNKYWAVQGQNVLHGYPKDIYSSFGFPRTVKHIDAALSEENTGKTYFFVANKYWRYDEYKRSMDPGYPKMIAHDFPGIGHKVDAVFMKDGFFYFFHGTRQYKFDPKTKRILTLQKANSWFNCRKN
How it was run: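 APMA- or trypsin-activated recombinant human MMP-1 (purified from transfected HT-1080 medium) with 4 μM MCA/Dpa quenched fluorogenic peptide, 1 h at room temperature in Tris/NaCl/CaCl2 buffer pH 7.5; fluorescence ex 330/em 420 nm. Ki from Morrison-equation fit of rates, substrate at or below Km, uncorrected.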

Human recombinant MMP-2 = molecular target: T2, Human recombinant MMP-2 (Homo sapiens, UniProt P08253)
T2 construct: made in house; host or cells: MMP-2-transfected p2AHT2 cells
T2 sequence (P08253 110-660): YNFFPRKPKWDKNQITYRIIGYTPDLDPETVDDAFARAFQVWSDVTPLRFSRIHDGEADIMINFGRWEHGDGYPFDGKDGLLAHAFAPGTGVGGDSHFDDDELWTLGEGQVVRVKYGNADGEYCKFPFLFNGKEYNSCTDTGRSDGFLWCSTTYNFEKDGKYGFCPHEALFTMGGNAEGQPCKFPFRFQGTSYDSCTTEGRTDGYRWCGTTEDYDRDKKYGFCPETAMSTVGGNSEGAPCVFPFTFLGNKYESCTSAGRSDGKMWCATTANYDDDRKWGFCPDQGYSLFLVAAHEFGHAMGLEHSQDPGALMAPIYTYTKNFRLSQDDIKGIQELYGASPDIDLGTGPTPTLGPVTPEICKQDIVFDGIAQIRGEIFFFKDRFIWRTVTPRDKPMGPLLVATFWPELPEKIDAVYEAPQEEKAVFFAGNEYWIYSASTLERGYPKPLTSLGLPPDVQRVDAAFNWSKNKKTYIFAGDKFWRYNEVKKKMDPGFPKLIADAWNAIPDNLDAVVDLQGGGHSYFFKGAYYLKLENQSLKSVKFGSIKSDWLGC
How it was run: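 Human recombinant MMP-2 from transfected p2AHT2 cells was activated with APMA or trypsin and incubated 1 h at room temperature with compounds and 4 μM MCA-RPLGL(Dpa)ARER-NH2. Buffer was pH 7.5 Tris/NaCl/CaCl2, and fluorescence was read at ex 330/em 420 nm. Ki was fitted by Morrison's equation without substrate correction.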

Human recombinant MMP-9 = molecular target: T3, Human recombinant MMP-9 (Homo sapiens, UniProt P14780)
T3 construct: made in house; host or cells: MMP-9-transfected HT1080 cells (spent media)
T3 sequence (P14780 107-707 limits assumed): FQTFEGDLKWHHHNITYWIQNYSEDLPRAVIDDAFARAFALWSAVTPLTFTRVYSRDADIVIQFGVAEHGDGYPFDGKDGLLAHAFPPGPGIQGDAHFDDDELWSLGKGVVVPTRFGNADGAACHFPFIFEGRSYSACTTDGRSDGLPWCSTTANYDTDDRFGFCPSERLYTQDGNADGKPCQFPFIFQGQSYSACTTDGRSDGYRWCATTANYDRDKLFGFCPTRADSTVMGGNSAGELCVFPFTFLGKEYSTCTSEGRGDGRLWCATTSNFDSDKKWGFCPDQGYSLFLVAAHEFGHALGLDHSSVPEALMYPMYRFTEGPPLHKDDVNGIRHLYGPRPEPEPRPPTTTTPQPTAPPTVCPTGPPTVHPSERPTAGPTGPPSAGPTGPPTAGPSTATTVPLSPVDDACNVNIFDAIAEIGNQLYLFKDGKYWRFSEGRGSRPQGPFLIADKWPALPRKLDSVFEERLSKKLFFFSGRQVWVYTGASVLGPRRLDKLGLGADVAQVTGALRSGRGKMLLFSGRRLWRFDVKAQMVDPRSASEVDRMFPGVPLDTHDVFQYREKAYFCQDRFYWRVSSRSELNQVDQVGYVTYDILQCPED
How it was run: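 Recombinant MMP-9 purified from transfected HT1080 cell media, activated with APMA, trypsin or recombinant MMP-3, assayed in Tris buffer pH 7.5 with CaCl2 and 4 μM fluorogenic MCA/Dpa peptide, 1 h at room temperature (ex 330/em 420 nm). Ki from Morrison-equation regression of velocity; substrate at or below Km, uncorrected.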

Human recombinant MMP-14 = molecular target: T4, Human recombinant MMP-14 (Homo sapiens, UniProt P50281)
T4 construct: The catalytic domain enzyme was expressed in E. coli inclusion bodies, solubilized in urea; made in house
How it was run: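 Refolded catalytic domain of MMP-14 expressed in E. coli, activated with APMA or trypsin, incubated 1 h at room temperature with 4 μM MCA-peptide substrate in Tris buffer pH 7.5 with CaCl2. Cleavage rate followed by fluorescence (ex 330/em 420 nm). Ki from Morrison-equation fit; substrate at or below Km, so no substrate correction.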

Ki (Human recombinant MMP-1) [nM]	Ki (Human recombinant MMP-2) [nM]	Ki (Human recombinant MMP-9) [nM]	Ki (Human recombinant MMP-14) [nM]	SMILES
1920	0.08	0.19	46.2	O=C(NO)C1(S(=O)(=O)c2ccc(-c3cnc(OCC4CC4)cn3)cc2)CCOCC1 [Example 168]
3520	0.15	2.31	539	O=C(NO)C1(S(=O)(=O)c2ccc(-c3cnc(OCCCC(F)(F)F)cn3)cc2)CCOCC1 [Example 88]
> 10000	114	246	> 10000	COc1ccc(Cc2cnc(-c3ccc(S(=O)(=O)C4(C(=O)NO)CCOCC4)cc3)cn2)cc1 [Example 182]
8950	2.46	267	1110	COC/C(Cl)=C/c1cnc(-c2ccc(S(=O)(=O)C3(C(=O)NO)CCOCC3)cc2)cn1 [Example 165]

More lines, now with the values behind:

SMILES	Ki (Human recombinant MMP-1) [nM]	Ki (Human recombinant MMP-2) [nM]	Ki (Human recombinant MMP-9) [nM]	Ki (Human recombinant MMP-14) [nM]
COc1ccc(C(=O)c2cnc(-c3ccc(S(=O)(=O)C4(C(=O)NO)CCOCC4)cc3)cn2)cc1 [Example 179]	> 10000	2.99	38.6	218
O=C(NCC1CCCCC1)c1cnc(-c2ccc(S(=O)(=O)C3(C(=O)NO)CCOCC3)cc2)cn1 [Example 190]	1310	1.7	32.3	4700
COCCOc1ccc(-c2ccc(S(=O)(=O)C3(C(=O)NO)CCOCC3)cc2)cc1 [Example 70]	969	0.177	1.11	299
O=C(NO)C1(S(=O)(=O)c2ccc(-c3ccc(C(F)(F)F)cc3F)cc2)CCOCC1 [Example 96]	602	0.668	2.14	224
CC(C)NC(=O)c1ccc(-c2ccc(S(=O)(=O)C3(C(=O)NO)CCOCC3)cc2)nc1 [Example 204]	751	4.32	11.8	6370
O=C(NO)C1(S(=O)(=O)c2ccc(-c3cnc4ccccc4n3)cc2)CCOCC1 [Example 194]	> 10000	176	1260	> 10000

— patent publication US20060074243A1, “Hydroxamic acid and amide compounds and their use as protease inhibitors” (Pharmacia Corporation, priority 2002, published 2006)
